Test results as given in patent US6914045B2, “Glycopeptide antibiotics” (Wyeth Holdings Corporation, priority 2001, dated 2005).
Converted amounts (≈) assume the structure as drawn.

Columns and labels:
Enterococcus sp. = experiment: in vitro antibacterial evaluation, MIC by broth dilution; assay type: cell-based; conditions: broth dilution, 18 hours at 35° C.
Outline: (§1)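 Step 1: dilute antibiotic across 64-0.06 μg/mL in Muller-Hinton II […]. Step 2: inoculate at 5×10^5 CFU/mL.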

Escherichia coli = experiment: as above; assay type: cell-based; conditions: 18 hours at 35° C.
Outline: as §1

Staphylococcus sp. = experiment: as above; assay type: cell-based; conditions: broth dilution, 18 hours at 35° C.
Outline: as §1

Streptococcus sp. = experiment: as above; assay type: cell-based; conditions: broth dilution, 18 hours at 35° C.
Outline: as §1

[1] = test system: Enterococcus faecalis (GC 6189); experiment: acute lethal infection in mice; assay type: in vivo; conditions: female CD-1 mice, intraperitoneal challenge, intravenous 30 min. after infection, 7 day survival
Outline: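 Intraperitoneal challenge of female CD-1 mice with a bacterial dose lethal to untreated animals within 24-48 hr; single iv treatment 30 min later, 5 mice per dose level. Survival is scored at day 7 and pooled from three experiments to give the median effective dose.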

CC(c1ccccc1)C1NC(=O)CNC(=O)C(CO)NC(=O)C(C(O)C2CNC(=N)N2C2OC(CO)C(O)C(O)C2O)NC(=O)C(C(O)C2CNC(=N)N2)NC(=O)C(Cc2ccc(OC3OC(CO)C(OC4OC5COC(C6CCCC6)OC5C(O)C4O)C(O)C3O)cc2)NC1=O (stereo not drawn) [Example 117, Cyclo[glycyl-β-methylphenylalanyl-O-[4-O-[4,6-O-(cyclopentylmethylene)hexopyranosyl]-hexopyranosyl]tyrosyl-3-(2-iminoiniidazolidin-4-yl)seryl-3-(3-hexopyranosyl-2-iminoimidazolidin-4-yl)serylseryl]]
MIC Enterococcus avium (GC 4558) (Enterococcus sp.; Enterococcus avium (GC 4558)): 4 µg/mL (≈ 2.91 µM)
MIC Enterococcus faecalis (ATCC 29212) (Enterococcus sp.; Enterococcus faecalis (ATCC 29212)): 2 µg/mL (≈ 1.45 µM)
MIC Enterococcus faecalis (GC 2242) (Enterococcus sp.; Enterococcus faecalis (GC 2242)): 2 µg/mL (≈ 1.45 µM)
MIC Enterococcus faecalis (GC 2691) (Enterococcus sp.; Enterococcus faecalis (GC 2691)): 4 µg/mL (≈ 2.91 µM)
MIC Enterococcus faecalis (GC 3059) (Enterococcus sp.; Enterococcus faecalis (GC 3059)): 4 µg/mL (≈ 2.91 µM)
MIC Enterococcus faecalis (GC 4552) (Enterococcus sp.; Enterococcus faecalis (GC 4552)): 4 µg/mL (≈ 2.91 µM)
MIC Enterococcus faecalis (GC 4553) (Enterococcus sp.; Enterococcus faecalis (GC 4553)): 4 µg/mL (≈ 2.91 µM)
MIC Enterococcus faecalis (GC 4554) (Enterococcus sp.; Enterococcus faecalis (GC 4554)): 2 µg/mL (≈ 1.45 µM)
MIC Enterococcus faecalis (GC 6189) (Enterococcus sp.; Enterococcus faecalis (GC 6189)): 2 µg/mL (≈ 1.45 µM)
MIC Enterococcus faecium (GC 2243) (Enterococcus sp.; Enterococcus faecium (GC 2243)): 2 µg/mL (≈ 1.45 µM)
MIC Enterococcus faecium (GC 4556) (Enterococcus sp.; Enterococcus faecium (GC 4556)): 2 µg/mL (≈ 1.45 µM)
MIC Enterococcus faecium (GC 4557) (Enterococcus sp.; Enterococcus faecium (GC 4557)): 2 µg/mL (≈ 1.45 µM)
MIC Enterococcus faecalis (ATCC 29212) (Enterococcus sp.; strain ATCC 29212): 2 µg/mL (≈ 1.45 µM)
MIC Enterococcus faecalis (GC 2242) (Enterococcus sp.; strain GC 2242): 2 µg/mL (≈ 1.45 µM)
MIC Enterococcus faecium (GC 2243) (Enterococcus sp.; strain GC 2243): 2 µg/mL (≈ 1.45 µM)
MIC Enterococcus faecalis (GC 2691) (Enterococcus sp.; strain GC 2691): 4 µg/mL (≈ 2.91 µM)
MIC Enterococcus faecalis (GC 3059) (Enterococcus sp.; strain GC 3059): 4 µg/mL (≈ 2.91 µM)
MIC Enterococcus faecalis (GC 4552) (Enterococcus sp.; strain GC 4552): 4 µg/mL (≈ 2.91 µM)
MIC Enterococcus faecalis (GC 4553) (Enterococcus sp.; strain GC 4553): 4 µg/mL (≈ 2.91 µM)
MIC Enterococcus faecalis (GC 4554) (Enterococcus sp.; strain GC 4554): 2 µg/mL (≈ 1.45 µM)
MIC Enterococcus faecium (GC 4556) (Enterococcus sp.; strain GC 4556): 2 µg/mL (≈ 1.45 µM)
MIC Enterococcus faecium (GC 4557) (Enterococcus sp.; strain GC 4557): 2 µg/mL (≈ 1.45 µM)
MIC Enterococcus avium (GC 4558) (Enterococcus sp.; strain GC 4558): 4 µg/mL (≈ 2.91 µM)
MIC Enterococcus faecalis (GC 6189) (Enterococcus sp.; strain GC 6189): 2 µg/mL (≈ 1.45 µM)
MIC Escherichia coli (ATCC 25922) (Escherichia coli; strain ATCC 25922): 64 µg/mL (≈ 46.5 µM)
MIC Escherichia coli (GC 4559) (Escherichia coli; strain GC 4559): 32 µg/mL (≈ 23.3 µM)
MIC Escherichia coli (GC 4560) (Escherichia coli; strain GC 4560): 1 µg/mL (≈ 0.727 µM)
MIC Coagulase Negative Staphylococcus (GC 4547) (Staphylococcus sp.): 1 µg/mL (≈ 0.727 µM)
MIC Coagulase Negative Staphylococcus (GC 4548) (Staphylococcus sp.): 1 µg/mL (≈ 0.727 µM)
MIC Coagulase Negative Staphylococcus (GC 4549) (Staphylococcus sp.): 1 µg/mL (≈ 0.727 µM)
MIC Coagulase Negative Staphylococcus (GC 4551) (Staphylococcus sp.): 2 µg/mL (≈ 1.45 µM)
MIC Coagulase Negative Staphylococcus (GC 6257) (Staphylococcus sp.): 0.5 µg/mL (≈ 0.364 µM)
MIC Staphylococcus aureus (ATCC 29213) (Staphylococcus sp.): 1 µg/mL (≈ 0.727 µM)
MIC Staphylococcus aureus (GC 1131) (Staphylococcus sp.): 2 µg/mL (≈ 1.45 µM)
MIC Staphylococcus aureus (GC 3051) (Staphylococcus sp.): 1 µg/mL (≈ 0.727 µM)
MIC Staphylococcus aureus (GC 3053) (Staphylococcus sp.): 2 µg/mL (≈ 1.45 µM)
MIC Staphylococcus aureus (GC 4541) (Staphylococcus sp.): 1 µg/mL (≈ 0.727 µM)
MIC Staphylococcus aureus (GC 4542) (Staphylococcus sp.): 1 µg/mL (≈ 0.727 µM)
MIC Staphylococcus aureus (GC 4544) (Staphylococcus sp.): 2 µg/mL (≈ 1.45 µM)
MIC Staphylococcus aureus (GC 4545) (Staphylococcus sp.): 1 µg/mL (≈ 0.727 µM)
MIC Staphylococcus aureus-SMITH (GC 4543) (Staphylococcus sp.): 1 µg/mL (≈ 0.727 µM)
MIC Staphylococcus haemolyticus (GC 4546) (Staphylococcus sp.): 1 µg/mL (≈ 0.727 µM)
MIC Staphylococcus aureus (GC 1131) (Staphylococcus sp.; inoculum 5×10^5 CFU/mL, strain GC 1131): 2 µg/mL (≈ 1.45 µM)
MIC Staphylococcus aureus (ATCC 29213) (Staphylococcus sp.; strain ATCC 29213): 1 µg/mL (≈ 0.727 µM)
MIC Staphylococcus aureus (GC 3051) (Staphylococcus sp.; strain GC 3051): 1 µg/mL (≈ 0.727 µM)
MIC Staphylococcus aureus (GC 3053) (Staphylococcus sp.; strain GC 3053): 2 µg/mL (≈ 1.45 µM)
MIC Staphylococcus aureus (GC 4541) (Staphylococcus sp.; strain GC 4541): 1 µg/mL (≈ 0.727 µM)
MIC Staphylococcus aureus (GC 4542) (Staphylococcus sp.; strain GC 4542): 1 µg/mL (≈ 0.727 µM)
MIC Staphylococcus aureus (GC 4544) (Staphylococcus sp.; strain GC 4544): 2 µg/mL (≈ 1.45 µM)
MIC Staphylococcus aureus (GC 4545) (Staphylococcus sp.; strain GC 4545): 1 µg/mL (≈ 0.727 µM)
MIC Staphylococcus haemolyticus (GC 4546) (Staphylococcus sp.; strain GC 4546): 1 µg/mL (≈ 0.727 µM)
MIC Coagulase Negative Staphylococcus (GC 4547) (Staphylococcus sp.; strain GC 4547): 1 µg/mL (≈ 0.727 µM)
MIC Coagulase Negative Staphylococcus (GC 4548) (Staphylococcus sp.; strain GC 4548): 1 µg/mL (≈ 0.727 µM)
MIC Coagulase Negative Staphylococcus (GC 4549) (Staphylococcus sp.; strain GC 4549): 1 µg/mL (≈ 0.727 µM)
MIC Coagulase Negative Staphylococcus (GC 4551) (Staphylococcus sp.; strain GC 4551): 2 µg/mL (≈ 1.45 µM)
MIC Coagulase Negative Staphylococcus (GC 6257) (Staphylococcus sp.; strain GC 6257): 0.5 µg/mL (≈ 0.364 µM)
MIC Staphylococcus aureus-SMITH (GC 4543) (Staphylococcus sp.; strain SMITH GC 4543): 1 µg/mL (≈ 0.727 µM)
MIC Streptococcus agalactiae (GC 4564) (Streptococcus sp.; Streptococcus agalactiae (GC 4564)): 0.25 µg/mL (≈ 0.182 µM)
MIC Streptococcus pneumoniae (ATCC 6301) (Streptococcus sp.; Streptococcus pneumoniae (ATCC 6301)): <0.06 µg/mL
MIC Streptococcus pneumoniae (GC 1894) (Streptococcus sp.; Streptococcus pneumoniae (GC 1894)): <0.06 µg/mL
MIC Streptococcus pneumoniae (GC 4565) (Streptococcus sp.; Streptococcus pneumoniae (GC 4565)): 0.12 µg/mL (≈ 0.0872 µM)
MIC Streptococcus pyogenes (GC 4563) (Streptococcus sp.; Streptococcus pyogenes (GC 4563)): 0.25 µg/mL (≈ 0.182 µM)
MIC Streptococcus pneumoniae (ATCC 6301) (Streptococcus sp.; strain ATCC 6301): <0.06 µg/mL
MIC Streptococcus pneumoniae (GC 1894) (Streptococcus sp.; strain GC 1894): <0.06 µg/mL
MIC Streptococcus pyogenes (GC 4563) (Streptococcus sp.; strain GC 4563): 0.25 µg/mL (≈ 0.182 µM)
MIC Streptococcus agalactiae (GC 4564) (Streptococcus sp.; strain GC 4564): 0.25 µg/mL (≈ 0.182 µM)
MIC Streptococcus pneumoniae (GC 4565) (Streptococcus sp.; strain GC 4565): 0.12 µg/mL (≈ 0.0872 µM)
median effective dose (ED50), Enterococcus faecalis (GC 6189) [1]: 0.38 mg/kg
